Measurements taken from patent publication US6806230B1, “Pyrimidine derivatives and herbicides containing them” (Kumiai Chemical Industry Co., Ltd., priority 1999, dated 2004).

Test system: barnyard grass (Eo)
Experiment: Test Example 1: herbicidal effects by flooded paddy field treatment;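 on Herbicidal effect index, Eo: 0-5 growth inhibition grade; 5 = over 90%; 4 = 70-90%; 3 = 50-70%; 2 = 30-50%; 1 = 10-30%; 0 = under 10%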;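 on Herbicidal effect index, Mo: 0-5 growth inhibition grade; 5 = over 90%; 4 = 70-90%; 3 = 50-70%; 2 = 30-50%; 1 = 10-30%; 0 = under 10%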
Type: in vivo
Set-up: herbicidal effects, Eo (barnyard grass):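 0-5 growth inhibition grade; 5 = over 90%; 4 = 70-90%; 3 = 50-70%; 2 = 30-50%; 1 = 10-30%; 0 = under 10%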
Details: dose 100 g active ingredient per 10 ares, examined on the 21st day after treatment, standards of Table 44
In short: (§1)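 Herbicidal effect is a graded score assigned 21 days after treatment. Application was one day after sowing into flooded (3 cm) puddled paddy soil, with diluted wettable powder dropped onto the water at 100 g active ingredient per 10 ares. Plants were kept in a greenhouse.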

Row | SMILES | herbicidal effects, Eo (barnyard grass)
1 | CC(C)c1ncncc1C(C(C)C)N(C)C(=O)Cc1ccc(F)cc1 (racemic) [Compound 1-129] | 5
2 | CCN(C(=O)Cc1cccs1)C(c1cncnc1C(F)F)C(C)C (racemic) [2-7] | 5
3 | CCN(C(=O)Cc1ccc(Cl)cc1F)C(c1cncnc1C(F)(F)F)C(C)C (racemic) [1-321] | 5
4 | Cc1ccc(CC(=O)N(C)C(c2ccccc2C)c2cncnc2C(F)(F)F)cc1 (racemic) [1-553] | 5
5 | CC(C)C(c1cncnc1C(F)(F)F)N(C)C(=O)Cc1cc(F)c(F)c(F)c1 (racemic) [1-418] | 5
6 | CC(C)C(c1cncnc1C(F)(F)F)N(C)S(=O)(=O)c1ccc(Cl)cc1 (racemic) [4-1] | 5
7 | C#CCN(C(=O)Cc1ccc(F)c(F)c1)C(c1cncnc1C(F)(F)F)C(C)C (racemic) [1-614] | 5
8 | Cc1ccc(CC(=O)N(CC#N)C(c2cncnc2C(F)(F)F)C(C)C)cc1 (racemic) [1-483] | 5
9 | CC(C)C(c1cncnc1C(F)(F)Cl)N(C)C(=O)OCc1ccccc1 (racemic) [1-639] | 5

Same assay, conditions: dose 100 gai/10a, examined on 21st day after treatment, index 0-5 per Table 44

Row | SMILES | Herbicidal effect index, Eo
10 | CCCC(c1cncnc1C(F)(F)F)N(C)C(=O)Cc1ccccc1 (racemic) [Compound 1-111] | 5

Test system: monochoria (Mo)
Experiment: as above
Type: in vivo
Set-up: herbicidal effects, Mo (monochoria):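 0-5 growth inhibition grade; 5 = over 90%; 4 = 70-90%; 3 = 50-70%; 2 = 30-50%; 1 = 10-30%; 0 = under 10%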
Details: dose 100 g active ingredient per 10 ares, examined on the 21st day after treatment, standards of Table 44
In short: as §1

Row | SMILES | herbicidal effects, Mo (monochoria)
11 | CC(C)c1ncncc1C(C(C)C)N(C)C(=O)Cc1ccc(F)cc1 (racemic) [Compound 1-129] | 5
12 | CCN(C(=O)Cc1cccs1)C(c1cncnc1C(F)F)C(C)C (racemic) [2-7] | 5
13 | CCN(C(=O)Cc1ccc(Cl)cc1F)C(c1cncnc1C(F)(F)F)C(C)C (racemic) [1-321] | 5
14 | Cc1ccc(CC(=O)N(C)C(c2ccccc2C)c2cncnc2C(F)(F)F)cc1 (racemic) [1-553] | 5
15 | CC(C)C(c1cncnc1C(F)(F)F)N(C)C(=O)Cc1cc(F)c(F)c(F)c1 (racemic) [1-418] | 5
16 | CC(C)C(c1cncnc1C(F)(F)F)N(C)S(=O)(=O)c1ccc(Cl)cc1 (racemic) [4-1] | 5
17 | C#CCN(C(=O)Cc1ccc(F)c(F)c1)C(c1cncnc1C(F)(F)F)C(C)C (racemic) [1-614] | 5
18 | Cc1ccc(CC(=O)N(CC#N)C(c2cncnc2C(F)(F)F)C(C)C)cc1 (racemic) [1-483] | 5
19 | CC(C)C(c1cncnc1C(F)(F)Cl)N(C)C(=O)OCc1ccccc1 (racemic) [1-639] | 5

Same assay, conditions: dose 100 gai/10a, examined on 21st day after treatment, index 0-5 per Table 44

Row | SMILES | Herbicidal effect index, Mo
20 | CCCC(c1cncnc1C(F)(F)F)N(C)C(=O)Cc1ccccc1 (racemic) [Compound 1-111] | 4

Test system: barnyard grass (Ec)
Experiment: Test Example 2: herbicidal effects by upland soil treatment
Type: in vivo
Set-up: scale not given here
Details: dose 100 g active ingredient per 10 ares, examined on the 21st day after treatment
In short: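 Pre-emergence test: barnyard grass and green foxtail sown in upland soil, then soil surface sprayed with wettable-powder formulation at 100 g active ingredient per 10 ares (100 l per 10 ares). Grown in greenhouse; herbicidal effect scored on a rating scale 21 days after treatment.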

Row | SMILES | Ec (herbicidal effects, index)
21 | C#CCN(C(=O)Cc1ccsc1)C(c1cncnc1C(C)C)C(C)C (racemic) [2-79] | 5
22 | C#CCN(C(=O)Cc1ccc(F)cc1)C(c1cncnc1CCC)C(C)C (racemic) [1-617] | 5
23 | CCc1ncncc1C(C(C)C)N(C)C(=O)Oc1ccc(Cl)cc1 (racemic) [1-642] | 4
24 | C#CCN(C(=O)Cc1ccc(F)cc1)C(c1cncnc1C(C)C)C(C)C (racemic) [1-622] | 4
25 | CC(C(=O)N(C)C(c1cncnc1C#N)C(C)C)c1ccc(Cl)cc1 (mixture of isomers) [1-508] | 5
26 | CCN(C(=O)Cc1cccs1)C(c1cncnc1C(F)F)C(C)C (racemic) [2-7] | 5
27 | CCN(C(=O)Cc1ccc(Cl)cc1F)C(c1cncnc1C(F)(F)F)C(C)C (racemic) [1-321] | 5
28 | Cc1ccc(CC(=O)N(C)C(c2ccccc2C)c2cncnc2C(F)(F)F)cc1 (racemic) [1-553] | 5
29 | CC(C)C(c1cncnc1C(F)(F)F)N(C)C(=O)Cc1cc(F)c(F)c(F)c1 (racemic) [1-418] | 5
30 | CC(C)C(c1cncnc1C(F)(F)F)N(C)S(=O)(=O)c1ccc(Cl)cc1 (racemic) [4-1] | 5
31 | C#CCN(C(=O)Cc1ccc(C)cc1)C(c1cncnc1CCC)C(C)C (racemic) [1-619] | 5
32 | C#CCN(C(=O)Cc1ccc(F)c(F)c1)C(c1cncnc1C(F)(F)F)C(C)C (racemic) [1-614] | 5
33 | Cc1ccc(CC(=O)N(CC#N)C(c2cncnc2C(F)(F)F)C(C)C)cc1 (racemic) [1-483] | 5
34 | CC(C)C(c1cncnc1C(F)(F)Cl)N(C)C(=O)OCc1ccccc1 (racemic) [1-639] | 5

Test system: barnyard grass (Ec)
Experiment: Test Example 3: herbicidal effects by foliage treatment in upland field
Type: in vivo
Set-up: scale not given here
Details: dose 100 g active ingredient per 10 ares, examined on the 14th day after treatment
Method: In a 80 cm^2 plastic pot, upland soil was filled, and seeds of barnyard grass (Ec) and green foxtail (Se) were sown and cultured in a green house for 2 weeks. Then, a wettable powder prepared in accordance with Formulation Example 1 was diluted with water and applied to the entire foliage from above the plants by means of a small size spray at a rate of 100 l per 10 ares so that the dose of the active ingredient would be 100 g per 10 ares. Thereafter, cultivation was carried out in a green house, and on the 14th day after the treatment, the herbicidal effects were examined in accordance with the standards of Table 44.

Row | SMILES | Ec (herbicidal effects, index)
35 | C#CCN(C(=O)Cc1ccsc1)C(c1cncnc1C(C)C)C(C)C (racemic) [2-79] | 4
36 | C#CCN(C(=O)Cc1ccc(F)cc1)C(c1cncnc1CCC)C(C)C (racemic) [1-617] | 4
37 | CCOc1ncncc1C(C(C)C)N(C)C(=O)Cc1ccc(Cl)cc1 (racemic) [1-661] | 5
38 | CCc1ncncc1C(C(C)C)N(C)C(=O)Oc1ccc(Cl)cc1 (racemic) [1-642] | 4
39 | C#CCN(C(=O)Cc1ccc(F)cc1)C(c1cncnc1C(C)C)C(C)C (racemic) [1-622] | 4
40 | CC(C)c1ncncc1C(C(C)C)N(C)C(=O)Cc1ccc(F)cc1 (racemic) [Compound 1-129] | 5
41 | CCCC(c1cncnc1C(F)(F)F)N(C)C(=O)Cc1ccccc1 (racemic) [Compound 1-111] | 4
42 | CC(C(=O)N(C)C(c1cncnc1C#N)C(C)C)c1ccc(Cl)cc1 (mixture of isomers) [1-508] | 4
43 | C#CCN(C(=O)Cc1ccc(C)cc1)C(c1cncnc1CCC)C(C)C (racemic) [1-619] | 4
44 | O=C(Cc1ccccc1)NC(c1cncnc1C(F)(F)Cl)C1CC1 (racemic) [Compound 1-1] | 4

Test system: barnyard grass (Eo)
Experiment: Test Example 4: selectivity for a crop plant by flooded paddy field treatment
Type: in vivo
Set-up: scale not given here
Details: barnyard grass, dose 25 gai/10a, 21st day after treatment, index per Table 44
In short: (§2)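 Scores reflect visual herbicidal effect, graded on a standard scale 21 days after water-surface treatment. The product, a wettable powder diluted with water, went on dropwise at 25 g a.i. per 10 ares one day after flooding to 3 cm. Weeds grew from sown seed and rice was transplanted at second-leaf stage.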

Row | SMILES | Eo (herbicidal effect index)
45 | CCN(C(=O)Cc1cccs1)C(c1cncnc1C(F)F)C(C)C (racemic) [2-7] | 5
46 | CCN(C(=O)Cc1ccc(Cl)cc1F)C(c1cncnc1C(F)(F)F)C(C)C (racemic) [1-321] | 5
47 | Cc1ccc(CC(=O)N(C)C(c2ccccc2C)c2cncnc2C(F)(F)F)cc1 (racemic) [1-553] | 5
48 | CC(C)C(c1cncnc1C(F)(F)F)N(C)C(=O)Cc1cc(F)c(F)c(F)c1 (racemic) [1-418] | 5
49 | CC(C)C(c1cncnc1C(F)(F)F)N(C)S(=O)(=O)c1ccc(Cl)cc1 (racemic) [4-1] | 5
50 | C#CCN(C(=O)Cc1ccc(F)c(F)c1)C(c1cncnc1C(F)(F)F)C(C)C (racemic) [1-614] | 5
51 | Cc1ccc(CC(=O)N(CC#N)C(c2cncnc2C(F)(F)F)C(C)C)cc1 (racemic) [1-483] | 5
52 | CC(C)C(c1cncnc1C(F)(F)Cl)N(C)C(=O)OCc1ccccc1 (racemic) [1-639] | 5

Test system: monochoria (Mo)
Experiment: as above
Type: in vivo
Set-up: scale not given here
Details: monochoria, dose 25 gai/10a, 21st day after treatment, index per Table 44
In short: as §2

Row | SMILES | Mo (herbicidal effect index)
53 | CCN(C(=O)Cc1cccs1)C(c1cncnc1C(F)F)C(C)C (racemic) [2-7] | 5
54 | CCN(C(=O)Cc1ccc(Cl)cc1F)C(c1cncnc1C(F)(F)F)C(C)C (racemic) [1-321] | 5
55 | Cc1ccc(CC(=O)N(C)C(c2ccccc2C)c2cncnc2C(F)(F)F)cc1 (racemic) [1-553] | 5
56 | CC(C)C(c1cncnc1C(F)(F)F)N(C)C(=O)Cc1cc(F)c(F)c(F)c1 (racemic) [1-418] | 5
57 | CC(C)C(c1cncnc1C(F)(F)F)N(C)S(=O)(=O)c1ccc(Cl)cc1 (racemic) [4-1] | 5
58 | C#CCN(C(=O)Cc1ccc(F)c(F)c1)C(c1cncnc1C(F)(F)F)C(C)C (racemic) [1-614] | 5
59 | Cc1ccc(CC(=O)N(CC#N)C(c2cncnc2C(F)(F)F)C(C)C)cc1 (racemic) [1-483] | 5
60 | CC(C)C(c1cncnc1C(F)(F)Cl)N(C)C(=O)OCc1ccccc1 (racemic) [1-639] | 4

Test system: rice (Or)
Experiment: as above
Type: in vivo
Set-up: scale not given here
Details: rice transplanted at second leaf stage, dose 25 gai/10a, 21st day after treatment, index per Table 44
In short: as §2

Row | SMILES | Or (herbicidal effect index on crop)
61 | CCN(C(=O)Cc1cccs1)C(c1cncnc1C(F)F)C(C)C (racemic) [2-7] | 1
62 | CCN(C(=O)Cc1ccc(Cl)cc1F)C(c1cncnc1C(F)(F)F)C(C)C (racemic) [1-321] | 1
63 | Cc1ccc(CC(=O)N(C)C(c2ccccc2C)c2cncnc2C(F)(F)F)cc1 (racemic) [1-553] | 1
64 | CC(C)C(c1cncnc1C(F)(F)F)N(C)C(=O)Cc1cc(F)c(F)c(F)c1 (racemic) [1-418] | 1
65 | CC(C)C(c1cncnc1C(F)(F)F)N(C)S(=O)(=O)c1ccc(Cl)cc1 (racemic) [4-1] | 1
66 | C#CCN(C(=O)Cc1ccc(F)c(F)c1)C(c1cncnc1C(F)(F)F)C(C)C (racemic) [1-614] | 1
67 | Cc1ccc(CC(=O)N(CC#N)C(c2cncnc2C(F)(F)F)C(C)C)cc1 (racemic) [1-483] | 1
68 | CC(C)C(c1cncnc1C(F)(F)Cl)N(C)C(=O)OCc1ccccc1 (racemic) [1-639] | 1
